Data taken from US8907076B2, “Mycobacterial peptide deformylase” (Council of Scientific and Industrial Research, priority 2006, dated 2014).

Target: mPDF (Mycobacterium tuberculosis peptide deformylase) (Mycobacterium tuberculosis, UniProt P9WIJ3)
Conditions: 500 mM, pre-incubation up to 2 h at 30° C., 70 ng protein/reaction
Method: The ability of mPDF to deformylate methionine was assessed in a spectrophotometric assay following the method described by Groche et al (Groche et al., Biochem. Biophys. Res. Commun. 246 342-346 1998) with slight modification. The assay was carried out in 50 μl reaction volume mPDF protein (usually 70 ng) in 1× assay buffer (100 mM phosphate buffer, pH 7.4 containing 100 μg/ml catalase) was incubated with the substrate (0 to 80 mM of N-formyl-Met-Ala, Sigma, USA) at 30° C. for 30 min. The reaction was terminated by addition of 50 μl of 4% HClO4 and further incubated (37° C. for 2 h) with TNBSA reagent (0.01% in 0.1M NaHCO3 buffer, pH 8.4). Following addition of 10% SDS (250 μl) and 1N HCl (125 μl), the highly chromogenic derivative generated due to reaction of primary amine with TNBSA was measured at 335 nm (Hermanson G, Bioconjugate techniques, Academic press, San Diego, Calif., 1996, pp, 112-113). The values obtained were corrected by subtracting the blank (all ingredients except mPDF enzyme) readings. Standard curves were prepared with known amounts (0-42.8 nmoles) of methionine.

mPDF (Mycobacterium tuberculosis peptide deformylase), sequence (P9WIJ3 whole entry): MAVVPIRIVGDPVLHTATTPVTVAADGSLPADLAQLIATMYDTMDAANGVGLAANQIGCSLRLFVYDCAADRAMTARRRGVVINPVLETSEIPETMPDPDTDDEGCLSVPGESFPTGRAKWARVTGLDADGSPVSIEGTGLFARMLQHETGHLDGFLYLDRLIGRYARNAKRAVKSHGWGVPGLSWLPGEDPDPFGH

OO [H2O2, hydrogen peroxide]
effect on the deformylating ability of mPDF compared to the untreated control: did not show any significant effect
